The target in assay [1] is T1, Leukotriene A-4 hydrolase (Homo sapiens, UniProt P09960).
T1 sequence (P09960 whole entry): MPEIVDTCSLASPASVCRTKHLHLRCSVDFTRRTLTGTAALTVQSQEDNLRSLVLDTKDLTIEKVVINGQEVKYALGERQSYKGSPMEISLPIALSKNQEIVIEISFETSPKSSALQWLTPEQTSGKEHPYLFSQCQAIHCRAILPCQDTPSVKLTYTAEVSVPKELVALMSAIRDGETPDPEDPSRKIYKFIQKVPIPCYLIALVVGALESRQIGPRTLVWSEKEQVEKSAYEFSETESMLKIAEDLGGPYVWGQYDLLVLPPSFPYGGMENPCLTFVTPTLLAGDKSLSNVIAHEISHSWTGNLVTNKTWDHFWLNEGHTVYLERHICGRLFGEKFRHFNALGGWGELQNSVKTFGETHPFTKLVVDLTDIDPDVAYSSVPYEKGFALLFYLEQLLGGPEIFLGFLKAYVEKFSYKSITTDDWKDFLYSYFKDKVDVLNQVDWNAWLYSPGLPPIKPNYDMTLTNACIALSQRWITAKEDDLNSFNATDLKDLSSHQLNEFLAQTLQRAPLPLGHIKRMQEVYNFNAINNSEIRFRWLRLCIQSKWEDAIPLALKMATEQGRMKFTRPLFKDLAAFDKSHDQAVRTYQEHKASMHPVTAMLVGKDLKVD
Briefly: Inhibition of human whole blood LTB-4 production (Leukotriene B-4). The class given is functional.

Assay [2] has as its target T1, Leukotriene A-4 hydrolase. As to the kind of experiment: Inhibition of human leukotriene A4 hydrolase (LTA-4).
For assay [3], the species on record is Mus musculus. As to the kind of experiment: Effective dose measured for mouse ex vivo whole blood LTB-4 production; Range is from 3-10. It counts as functional.
Assay [4] has as its system Mus musculus. Briefly: Percentage inhibition of mouse ex vivo whole blood LTB-4 production (Leukotriene B-4) at a concentration of 10 mg/kg. The class given is functional.
The species named for assay [5] is Mus musculus. Briefly: Effective dose measured for mouse ex vivo whole blood LTB-4 production (Leukotriene B-4). It counts as functional.
For assay [6], the species on record is Mus musculus. As to the kind of experiment: Effective dose measured for mouse ex vivo whole blood LTB-4 production; Range is from 1-3. It counts as functional.
For assay [7], the species on record is Mus musculus. Briefly: Effective dose measured for mouse ex vivo whole blood LTB-4 production; Range is from 1-3. It counts as functional.

As usually defined, the IC50 is the midpoint of a concentration-inhibition curve. As usually defined, the inhibition in vivo is how much of the control response was suppressed. Low values mean a response near the control, high ones a response far below the control.

With `CCOC(=O)CCNCCCOc1ccc(Cc2ccccc2)cc1`, the figures for the IC50 in assay [1] and in assay [2] were 0.45 µM and 0.084 µM, respectively.

On to `CCOC(=O)CN(C)CCCCOc1ccc(Cc2ccccc2)cc1`, for which the values for the IC50 in assay [1] and in assay [2] were 3.3 µM and 6.6 µM, respectively.

For `CN(CCCOc1ccc(Cc2cccs2)cc1)CCC(=O)O`, the ED90 in the assay filed under Mus musculus [3] turned out to be 10 mg/kg.

For the compound `COC(=O)CCN(C)CCCOc1ccc(Cc2cccnc2)cc1`, the inhibition in vivo at 10 mg/kg with Mus musculus [4] was 58%.

As for `O=C(O)CCNCCCCOc1ccc(Cc2ccccc2)cc1`, the IC50 in assay [1] worked out at 0.49 µM. The same compound gave an inhibition in vivo at 10 mg/kg in the assay with Mus musculus [4] of 70%.

For `CCOC(=O)CCCCNCCOc1ccc(Cc2ccccc2)cc1`, the IC50 turned out to be 2.5 µM in assay [1] and 10.7 µM in assay [2].

In assay [1], `COC(=O)CCN(C)CCCOc1ccc(Cc2cccs2)cc1` displayed a concentration for half-maximal inhibition (IC50) of 0.095 µM. The ED90 in the assay filed under Mus musculus [3] was 10 mg/kg.

Take `CN(CCCOc1ccc(Oc2ccc(-c3ccccc3)cc2)cc1)CCC(=O)O`: the concentration for half-maximal inhibition (IC50) in assay [1] is 0.19 µM; in assay [2], < 0.0005 µM. Besides, in the assay listed under Mus musculus [5], the ED90 came out at 10 mg/kg.

In the case of `CCOC(=O)CCN(C)CCCCOc1ccc(Cc2ccccc2)cc1`, the 50% inhibitory concentration (IC50) in assay [1] is 0.52 µM; in assay [2], > 10 µM.

For `CN(CCCOc1ccc(Cc2ccccc2)cc1)CCS(N)(=O)=O`, the IC50 came to 0.74 µM in assay [1] and 0.004 µM in assay [2]. Moreover, the inhibition in vivo at 10 mg/kg in the assay on Mus musculus [4] was determined as 84%.

As for `CN(CCCOc1ccc(Oc2ccccc2)cc1)CCC(=O)O`, the values for the IC50 in assay [1] and in assay [2] were 0.23 µM and 0.019 µM, respectively. The ED90 in the assay listed under Mus musculus [5] came out at 3 mg/kg.

Take `CN(CCCOc1ccc(Cc2ccccc2)cc1)CCn1cnnn1`: the half-inhibitory concentration (IC50) in assay [1] is 0.56 µM; in assay [2] it was 1.65 µM.

`CCOC(=O)CCCNCCOc1ccc(Cc2ccccc2)cc1`: the IC50 in assay [1] is 2.5 µM; in assay [2], 3.7 µM.

As to `CN(CCCOc1ccc(Cc2ccccc2)cc1)CCC(=O)NS(C)(=O)=O`, the half-inhibitory concentration (IC50) in assay [1] is 0.07 µM. Moreover, in the assay listed under Mus musculus [5], the ED90 was ≤ 1 mg/kg.

Take `c1ccc(-c2ccc(OCCN3CCCC3)cc2)cc1`: in the assay on Mus musculus [4], the inhibition in vivo at 10 mg/kg is 9%.

For the compound `CN(CCCOc1ccc(Cc2ccccc2)cc1)CCC(N)=O`, the IC50 in assay [1] is 0.11 µM; in assay [2], 0.007 µM. 10 mg/kg produced 98% inhibition in vivo with Mus musculus [4].

Compound `COC(=O)CCNCCOc1ccc(Cc2ccccc2)cc1` yielded an IC50 in assay [1] of 0.59 µM.

As to `O=C(O)CNCCCCOc1ccc(Cc2ccccc2)cc1`, the results for the IC50 in assay [1] and in assay [2] were 0.23 µM and 0.0013 µM, respectively. For the same compound, the ED90 in the assay listed under Mus musculus [5] was ≥ 10 mg/kg.

Take `CN(CCCOc1ccc(Cc2ccccc2)cc1)CCS(=O)(=O)O`: the values for the IC50 in assay [1] and in assay [2] were 5.2 µM and 0.22 µM, respectively.

In the case of `CN(CCCOc1ccc(Cc2ccccc2)cc1)CCC(=O)O.Cl`, the ED90 in the assay listed under Mus musculus [6] stood at 3 mg/kg.

Regarding `CN(CCCOc1ccc(Cc2ccsc2)cc1)CCC(=O)O`, the ED90 in the assay listed under Mus musculus [3] came to 10 mg/kg.

On to `CCOC(=O)CCN(C)CCCOc1ccc(Cc2ccccc2)cc1`, for which the half-inhibitory concentration (IC50) in assay [1] was 0.11 µM. In the assay filed under Mus musculus [3], this compound displayed an ED90 of 10 mg/kg.

`CN(CCCOc1ccc(Cc2ccc(F)cc2)cc1)CCC(=O)O`: inhibition in assay [1] was half-maximal at 0.19 µM (IC50). Also, in the assay listed under Mus musculus [5], the ED90 is ≥ 10 mg/kg.

As to `CN(CCCCOc1ccc(Cc2ccccc2)cc1)CC(=O)O`, the IC50 in assay [1] came to 0.45 µM; in assay [2], 0.11 µM.

For `c1coc(-c2ccc(Oc3ccc(OCCN4CCCC4)cc3)cc2)n1`, in the assay with Mus musculus [4], the inhibition in vivo at 10 mg/kg was 93%.

Turning to `CCOC(=O)CNCCCCCOc1ccc(Cc2ccccc2)cc1`, 0.42 µM corresponded to half-maximal inhibition in assay [1] (IC50). Further, the ED90 in the assay filed under Mus musculus [5] came to 10 mg/kg.

`CCOC(=O)CNCCOc1ccc(Cc2ccccc2)cc1`: the values for the IC50 in assay [1] and in assay [2] were > 30 µM and 2.5 µM, respectively.

In turn, `CCOC(=O)CNCCCOc1ccc(Cc2ccccc2)cc1` came in with an IC50 in assay [1] of 1.1 µM. For the same compound, in the assay with Mus musculus [4], 10 mg/kg produced 22% inhibition in vivo.

For the compound `CN(CCCOc1ccc(Cc2ccccc2)cc1)CCC(=O)NS(=O)(=O)c1ccccc1`, in assay [1], the 50% inhibitory concentration (IC50) stood at 0.075 µM. Further, the ED90 in the assay filed under Mus musculus [5] stood at 3 mg/kg.

As for `COC(=O)CCCN(C)CCOc1ccc(Cc2ccccc2)cc1`, the IC50 worked out at 0.46 µM in assay [1] and 0.45 µM in assay [2]. Besides, in the assay listed under Mus musculus [5], the ED90 was ≥ 10 mg/kg.

Turning to `COC(=O)CCN(C)CCCOc1ccc(Cc2ccsc2)cc1`, the IC50 in assay [1] worked out at 0.25 µM; in assay [2], 0.87 µM. Further, the ED90 in the assay filed under Mus musculus [7] is 3 mg/kg.

Regarding `CN(CCCOc1ccc(Oc2ccc(F)cc2)cc1)CCC(=O)O`, the IC50 was found to be 0.21 µM in assay [1] and 0.16 µM in assay [2]. In the assay listed under Mus musculus [5], this compound had an ED90 of 3 mg/kg.

Consider `O=C(O)CCNCCCOc1ccc(Cc2ccccc2)cc1`, for which half-maximal inhibition in assay [1] (IC50) was put at 0.28 µM. For the same compound, the ED90 in the assay filed under Mus musculus [5] was ≥ 10 mg/kg.

In turn, `CCOC(=O)CNCCCCOc1ccc(Cc2ccccc2)cc1` showed an IC50 in assay [1] of 0.35 µM. Also, the ED90 in the assay listed under Mus musculus [5] was ≥ 10 mg/kg.

`CCOC(=O)CCNCCCCOc1ccc(Cc2ccccc2)cc1` came in with an IC50 in assay [1] of 0.076 µM. The compound further returned an ED90 in the assay filed under Mus musculus [5] of 3 mg/kg.

In assay [1], `CN(CCCOc1ccc(Oc2ccc(-c3ncco3)cc2)cc1)CCC(=O)O` showed a half-maximal inhibitory concentration (IC50) of 0.19 µM. In addition, in the assay listed under Mus musculus [5], the ED90 is ≥ 10 mg/kg.

Regarding `CN(CCCOc1ccc(Oc2ccc(-c3nccs3)cc2)cc1)CCC(=O)O`, the IC50 in assay [1] stood at 0.072 µM. In the assay with Mus musculus [4], the inhibition in vivo at 10 mg/kg worked out at 87%.

The record behind these values is ChEMBL document CHEMBL1135532, “Synthesis of potent leukotriene A(4) hydrolase inhibitors. Identification of 3-[methyl[3-[4-(phenylmethyl)phenoxy]propyl]amino]propanoic acid” (J Med Chem, 2002).
